According to patent publication US20100298141A1, “SUBSTITUTED PYRIDINE N-OXIDE HERBICIDES” (E. I. DU PONT DE NEMOURS AND COMPANY, priority 2007, published 2010):

Tests used:
broadleaf signalgrass = experiment: Test F preemergence test; assay type: in vivo, Brachiaria platyphylla; conditions: scale 0 to 100
In short: (§1)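 Test chemicals were formulated in a non-phytotoxic solvent mixture with surfactant and applied preemergence to planted seeds or postemergence to sugarcane plants. Plants were kept in a greenhouse for 14 to 21 days, then visually evaluated against controls.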

common ragweed [1] = experiment: Test C pre-/postemergence test; assay type: in vivo, Ambrosia elation
In short: (§2)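 Compounds in a non-phytotoxic solvent with surfactant applied preemergence to seeded pots and, at the same time, postemergence to plants 2–18 cm tall (1- to 4-leaf stage). Paddy tests: pots flooded to 3 cm, compound applied into the water, depth held throughout.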

naked crabgrass = experiment: Test F preemergence test; assay type: in vivo, Digitaria nuda; conditions: scale 0 to 100
In short: as §1

green foxtail = experiment: Test F preemergence test; assay type: in vivo, Setaria viridis; conditions: scale 0 to 100
In short: as §1

yellow nutsedge = experiment: Test C pre-/postemergence test; assay type: in vivo, Cyperus esculentus
In short: as §2

purple nutsedge = experiment: Test F preemergence test; assay type: in vivo, Cyperus rotundus; conditions: scale 0 to 100
In short: as §1

common ragweed [2] = experiment: Test F preemergence test; assay type: in vivo, Ambrosia elation; conditions: scale 0 to 100
In short: as §1

crabgrass = experiment: Test A pre-/postemergence greenhouse test; assay type: in vivo, Digitaria sanguinalis; conditions: for Plant response rating, Crabgrass, Large: 0 to 100 scale where 0 is no effect and 100 is complete control; for Crabgrass, Large plant response rating: 0 to 100 scale
In short: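 Two application timings were run side by side in the greenhouse. Before emergence, compound went onto the soil surface of loam–sand pots as a directed spray; after emergence, plants at 2–10 cm and the one- to two-leaf stage were treated. Visual injury versus controls was rated at approximately day ten.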

kochia = experiment: Test C pre-/postemergence test; assay type: in vivo, Kochia scoparia
In short: as §2

itchgrass = experiment: Test F preemergence test; assay type: in vivo, Rottboellia cochinchinensis; conditions: scale 0 to 100
In short: as §1

goosegrass = experiment: Test F preemergence test; assay type: in vivo, Eleusine indica; conditions: scale 0 to 100
In short: as §1

pitted morningglory = experiment: Test F preemergence test; assay type: in vivo, Ipomoea lacunosa; conditions: 16 g ai/ha, preemergence; scale 0 to 100
In short: as §1

bermudagrass = experiment: Test F preemergence test; assay type: in vivo, Cynodon dactylon; conditions: scale 0 to 100
In short: as §1

prickly sida = experiment: Test F preemergence test; assay type: in vivo, Sida spinosa; conditions: scale 0 to 100
In short: as §1

[3] = 62 g ai/ha, Preemergence, scale 0 to 100
[4] = 125 g ai/ha, preemergence, scale 0 (no effect) to 100 (complete control)
[5] = Preemergence, 31 g ai/ha, scale 0 to 100 (0 no effect, 100 complete control)
[6] = preemergence, 250 g ai/ha, scale 0 (no effect) to 100 (complete control)

Cn1nc(C(F)(F)F)c(C[S+]([O-])c2ccc(Cl)c[n+]2[O-])c1OCC(F)F (centres unmarked) [Compound 85]
Plant response rating, Signalgrass (broadleaf signalgrass; 16 g ai/ha, preemergence): 60
Signalgrass plant response rating (broadleaf signalgrass; 125 g ai/ha, preemergence): 80
Plant response rating, Signalgrass (broadleaf signalgrass; Preemergence, 62 g ai/ha): 70
Plant response rating, Signalgrass (broadleaf signalgrass; Preemergence, 31 g ai/ha): 70
Ragweed plant response rating (common ragweed [1]; [3]): 100
Ragweed plant response rating (common ragweed [1]; [4]): 100
Plant response rating, Ragweed (common ragweed [1]; [5]): 100
Ragweed plant response rating (common ragweed [1]; [6]): 100
Plant response rating, Crabgrass, Naked (naked crabgrass; 16 g ai/ha, preemergence): 75
Crabgrass, Naked plant response rating (naked crabgrass; 125 g ai/ha, preemergence): 95
Plant response rating, Crabgrass, Naked (naked crabgrass; Preemergence, 62 g ai/ha): 90
Plant response rating, Crabgrass, Naked (naked crabgrass; Preemergence, 31 g ai/ha): 80
Plant response rating, Foxtail, Green (green foxtail; 16 g ai/ha, preemergence): 35
Foxtail, Green plant response rating (green foxtail; 125 g ai/ha, preemergence): 95
Plant response rating, Foxtail, Green (green foxtail; Preemergence, 62 g ai/ha): 90
Plant response rating, Foxtail, Green (green foxtail; Preemergence, 31 g ai/ha): 70
Nutsedge, Yellow plant response rating (yellow nutsedge; [3]): 40
Nutsedge, Yellow plant response rating (yellow nutsedge; [4]): 40
Plant response rating, Nutsedge, Yellow (yellow nutsedge; [5]): 40
Nutsedge, Yellow plant response rating (yellow nutsedge; [6]): 95
Plant response rating, Purple Nutsedge (purple nutsedge; 16 g ai/ha, preemergence): 0
Purple Nutsedge plant response rating (purple nutsedge; 125 g ai/ha, preemergence): 65
Plant response rating, Purple Nutsedge (purple nutsedge; Preemergence, 62 g ai/ha): 50
Plant response rating, Purple Nutsedge (purple nutsedge; Preemergence, 31 g ai/ha): 0
Plant response rating, Ragweed (common ragweed [2]; 16 g ai/ha, preemergence): 0
Ragweed plant response rating (common ragweed [2]; 125 g ai/ha, preemergence): 80
Plant response rating, Ragweed (common ragweed [2]; Preemergence, 62 g ai/ha): 80
Plant response rating, Ragweed (common ragweed [2]; Preemergence, 31 g ai/ha): 20
Plant response rating, Crabgrass, Large (crabgrass; Postemergence, 125 g ai/ha): 70
Crabgrass, Large plant response rating (crabgrass; Postemergence, 500 g ai/ha, 0 is no effect, 100 is complete control): 90
Crabgrass, Large plant response rating (crabgrass; Preemergence, 125 g ai/ha, 0 no effect, 100 complete control): 80
Plant response rating, Crabgrass, Large (crabgrass; Preemergence, 500 g ai/ha): 100
Kochia plant response rating (kochia; [3]): 100
Kochia plant response rating (kochia; [4]): 100
Plant response rating, Kochia (kochia; [5]): 100
Kochia plant response rating (kochia; [6]): 100
Plant response rating, Itchgrass (itchgrass; 16 g ai/ha, preemergence): 25
Itchgrass plant response rating (itchgrass; 125 g ai/ha, preemergence): 90
Plant response rating, Itchgrass (itchgrass; Preemergence, 62 g ai/ha): 70
Plant response rating, Itchgrass (itchgrass; Preemergence, 31 g ai/ha): 70
Plant response rating, Goosegrass (goosegrass; 16 g ai/ha, preemergence): 35
Goosegrass plant response rating (goosegrass; 125 g ai/ha, preemergence): 100
Plant response rating, Goosegrass (goosegrass; Preemergence, 62 g ai/ha): 80
Plant response rating, Goosegrass (goosegrass; Preemergence, 31 g ai/ha): 65
Plant response rating, Morningglory (pitted morningglory): 0
Plant response rating, Bermudagrass (bermudagrass; 16 g ai/ha, preemergence): 20
Bermudagrass plant response rating (bermudagrass; 125 g ai/ha, preemergence): 95
Plant response rating, Bermudagrass (bermudagrass; Preemergence, 62 g ai/ha): 80
Plant response rating, Bermudagrass (bermudagrass; Preemergence, 31 g ai/ha): 60
Plant response rating, Prickly Sida (prickly sida; 16 g ai/ha, preemergence): 0
Prickly Sida plant response rating (prickly sida; 125 g ai/ha, preemergence): 60
Plant response rating, Prickly Sida (prickly sida; Preemergence, 62 g ai/ha): 40
Plant response rating, Prickly Sida (prickly sida; Preemergence, 31 g ai/ha): 20
